From the NIST ThermoML archive (doi:10.1016/j.jct.2010.11.006) come the findings set out here.

± gives the expanded uncertainty stated by the source.

Data set [1] in a line: molar enthalpy of vaporization or sublimation. As to conditions: 298.15 K; Crystal; Calver Calorimeter- drop method.
Data set [2] in a line: Molar enthalpy of transition or fusion. As to conditions: Crystal; DSC.
For data set [3] the following is noted: Crystal; for Normal melting temperature: DTA.

For the compound `O=c1[nH]sc2ccccc12` [1,2-benzisothiazol-3(2H)-one], the molar enthalpy in data set [1] was 26.9 ± 1.2 kcal/mol. Besides, in data set [2], the “Molar enthalpy of transition or fusion” value came out at 4.99 ± 0.117 kcal/mol. Besides, the Normal melting temperature in data set [3] was found to be 155.64 ± 0.39 °C.

With `O=C1CSc2ccccc2N1` [2H-1,4-benzothiazin-3(4H)-one], the “Molar enthalpy of transition or fusion” value in data set [2] amounted to 6.04 ± 0.143 kcal/mol. In data set [3] (298.15 K, Calver Calorimeter- drop method), the “molar enthalpy of sublimation” value amounted to 28.2 ± 1.82 kcal/mol. Besides, in data set [3], the Normal melting temperature was 178.24 ± 0.39 °C.
